# Read-outs that look alike come from different tables or passages of the source. Where no end group is shown, it is not given here.
# Legend:
# [1] = system: primary myoblasts; experiment: Calcein endosomal escape assay, quantification by flow cytometry; type: cell-based, Human
# Description: (§1) In addition to microscopy, flow cytometry allows a more quantitative analysis of the endosomal leakage as the fluorescence intensity signal increases once the calcein is released in the cytoplasm. Calcein fluorescence is optimal at physiological pH (e.g., in the cytosol), as compared to the acidic environment of the endosome.
# (§2) The cells were allowed to attach by incubating overnight in appropriate growth media, as described in Example 1. The next day, the media in wells was removed and replaced with 50 μL of fresh media without serum containing 62.5 μg/mL (100 μM) of calcein, except for HEK293A (250 μg/mL, 400 μM). At the same time, the shuttle agent(s) to be tested was added at a predetermined concentration. The plate was incubated at 37° C. for 30 minutes. The cells were washed with 1×PBS (37° C.) and fresh media containing 5-10% serum was added. The plate was incubated at 37° C. for 2.5 hours. The cells were washed with 1×PBS and detached using trypsinization.
# (§3) Untreated calcein-loaded cells were used as a control to distinguish cells having a baseline of fluorescence due to endosomally-trapped calcein from cells having increased fluorescence due to release of calcein from endosomes. Fluorescence signal means (“mean counts”) were analyzed for endosomal escape quantification. In some cases, the “Mean Factor” was calculated, which corresponds to the fold-increase of the mean counts relative to control (untreated calcein-loaded cells). […] The cellular mortality was monitored with the percentage of cells in the total events scanned. When it became lower than the control, it was considered that the number of cellular debris was increasing due to toxicity and the assay was discarded.
# To examine the effects of the shuttle agents on primary cells, primary myoblast cells were cultured and tested in the endosomal escape assays as described in Example 2.1. The results of flow cytometry analyses are summarized below in Tables 2.9 and 2.10, and in FIG. 4. In each case, the flow cytometry results were also confirmed by fluorescence microscopy.
# [2] = Cell toxicity / % cell viability by flow cytometry (cells in total events v. untreated); type: cell-based, human; details: human, THP-1 cells, Cell viability (%) (±St. Dev.; n = 3), FIG. 17B; THP-1; GFP-NLS 5 μM; shuttle 1 μM; 5 minutes
# Description: (§4) The fluorescence of GFP was quantified using flow cytometry (Accuri C6, Becton, Dickinson and Company (BD)). Untreated cells were used to establish a baseline in order to quantify the increased fluorescence due to the internalization of the fluorescent protein in treated cells. The percentage of cells with a fluorescence signal above the maximum fluorescence of untreated cells, “mean %” or “Pos cells (%)”, is used to identify positive fluorescent cells. “Relative fluorescence intensity (FL1-A)” corresponds to the mean of all fluorescence intensities from each cell with a fluorescent signal after fluorescent protein delivery with the shuttle agent. Also, the events scanned by flow cytometry corresponding to cells (size and granularity) were analyzed. The cellular toxicity (% cell viability) was monitored comparing the percentage of cells in the total events scanned of treated cells comparatively to untreated cells.
# [3] = as above; type: cell-based, Human; details: human, HeLa cells, HeLa, 1 hour; for viability at 1 h, 0.5 µM / viability at 1 h, 1 µM / viability at 1 h, 3 µM / viability at 1 h, 5 µM: Cell viability (%) (±St. Dev.; n = 3), read-out: Cell viability (%) (±St. Dev.; n = 3); for viability at 1 h, 0.5 µM: shuttle 0.5 μM; for viability at 1 h, 1 µM: shuttle 1 μM; for viability at 1 h, 3 µM: shuttle 3 μM; for viability at 1 h, 5 µM: shuttle 5 μM
# Description: as §4
# [4] = system: HeLa cells; experiment: as above; type: cell-based, Human; details: HeLa; GFP-NLS 5 μM; shuttle 1 μM; 1 hour
# Description: as §4
# [5] = system: HeLa cells; experiment: GFP-NLS transduction efficiency, flow cytometry (Pos cells %, relative fluorescence intensity FL1-A); type: cell-based, Human; details: GFP-NLS 5 μM, 1 hour
# [6] = system: HeLa cells; type: cell-based, Human
# Description: as §1, §2, §3
# HeLa cells were cultured and tested in the endosomal escape assays as described in Example 2.1. In each case, the flow cytometry results were also confirmed by fluorescence microscopy (data not shown).
# [7] = system: HeLa cells; experiment: GFP transduction efficiency, flow cytometry (% GFP-positive cells); type: cell-based, Human; details: for Mean (%) (n = 3), FIG. 7B: shuttle 2.5 μM
# Description: GFP, GFP-NLS and TAT-GFP are recombinant proteins developed and produced by Feldan (see Example 3.4 below).
# Briefly, GFP recombinant protein was co-incubated with different concentrations of CM18-TAT-Cys or dimerized CM18-TAT-Cys (dCM18-TAT-Cys), and then exposed to HeLa cells for 1 hour.
# Briefly, GFP recombinant protein (5 μM) was co-incubated with different concentrations and combinations of CM18-TAT-Cys, CM18-Penetratin-Cys, and dimers of each (dCM18-TAT-Cys, dCM18-Penetratin-Cys), and then exposed to HeLa cells for 1 hour. […] The results are shown in Table 3.3 and FIG. 8, as well as in Table 3.4 and FIG. 9.
# [8] = FIG. 11B, TAT-GFP 5 μM, FIG. 11B
# [9] = FIG. 13B, GFP-NLS 5 μM, FIG. 13B
# [10] = FIG. 21B, GFP-NLS 5 μM, FIG. 21B
sequence,measurement,setting,value
KWKLFKKIGAVLKVLTTGYGRKKRRQRRRC [CM18-TAT-Cys],concentrations associated with an increase in cell toxicity,[1]; myoblast cells,above 10 μM
same,"viability at 5 min, 1 µM",[2],85 ± 6%
same,"viability at 1 h, 0.5 µM","[3]; FIG. 6B, GFP 5 μM, FIG. 6B",88.4 ± 6%
same,"viability at 1 h, 1 µM","[3]; FIG. 6B, GFP 5 μM, FIG. 6B",90 ± 6%
same,"viability at 1 h, 3 µM","[3]; FIG. 6B, GFP 5 μM, FIG. 6B",91 ± 5%
same,"viability at 1 h, 5 µM","[3]; FIG. 6B, GFP 5 μM, FIG. 6B",90 ± 7%
same,"viability at 1 h, 0.5 µM",[3]; [8],84.4 ± 5%
same,"viability at 1 h, 1 µM",[3]; [8],89.3 ± 5.26%
same,"viability at 1 h, 3 µM",[3]; [8],93.2 ± 6.28%
same,"viability at 1 h, 5 µM",[3]; [8],95.1 ± 5.28%
same,"viability at 1 h, 0.5 µM",[3]; [9],87.6 ± 4%
same,"viability at 1 h, 1 µM",[3]; [9],93 ± 8%
same,"viability at 1 h, 3 µM",[3]; [9],94 ± 5%
same,"viability at 1 h, 5 µM",[3]; [9],93 ± 4%
same,"viability at 1 h, 3 µM",[3]; [10],89 ± 5.37%
same,"viability at 1 h, 5 µM",[3]; [10],81 ± 6.34%
same,"viability at 1 h, 3.5 µM","[3]; antibody 0.5 μM, shuttle 3.5 μM, read-out: Cell viability (%) (± St. Dev.; n = 3), FIG. 19B",95 ± 4.06%
same,"Cell viability (%) (±St. Dev.; n = 3), FIG. 21B",[4],94 ± 4.28%
KWKLFKKIGAVLKVLTTGYGRKKRRQRRRC [dCM18-TAT-Cys],GFP-NLS transduction efficiency / intracellular delivery (in words),"[5]; Tables 5.2, 5.3, FIGS. 14, 15",increased
same,"Mean (%) (n = 3), FIG. 14",[5]; shuttle 0.5 μM,8.29%
same,"Mean (%) (n = 3), FIG. 15",[5]; shuttle 1 μM,17.83%
same,Mean Factor,"[6]; Table 2.6, dimer 2 μM",1.3
same,Mean counts (n = 4),"[6]; Table 2.6, dimer 2 μM",79 380
same,Mean Factor,"[6]; Table 2.7, dimer 2 μM",3.1
same,Mean counts (n = 3),"[6]; Table 2.7, dimer 2 μM",174 274
same,Mean counts,"[1]; primary myoblasts, peptide 2.5 μM, Table 2.11",64 864
same,Mean Factor,"[1]; primary myoblasts, peptide 2.5 μM, factor v. no peptide",2.1
same,GFP transduction efficiency / intracellular delivery (in words),"[7]; GFP 5 μM, 1 hour, Table 3.3 and FIG. 8",increased
same,GFP transduction efficiency / intracellular delivery (in words),"[7]; GFP 5 μM, 1 hour, Table 3.4 and FIG. 9",increased
same,"Mean (%) (n = 3), FIG. 8","[7]; GFP 5 μM, shuttle 0.5 μM, 1 hour",8.86%
same,"Mean (%) (n = 3), FIG. 9","[7]; GFP 5 μM, shuttle 1 μM, 1 hour",18.43%
same,"Mean (%) (n = 3), FIG. 7B",[7]; GFP 1 μM,9.38%
same,"Mean (%) (n = 3), FIG. 7B",[7]; GFP 5 μM,22.2%
same,"Mean (%) (n = 3), FIG. 7B",[7]; GFP 10 μM,34.2%
